In one assay the target is PTK2 (FAK) (Homo sapiens (Human), UniProt Q05397). Description: Z′-LYTE kinase assay (SelectScreen Biochemical Kinase Profiling), enzymatic IC50. The note with it: enzymatic, Z′-LYTE; read-out: FAK IC50. The method, then:
Enzymatic IC50 data was obtained through ThermoFisher Scientific SelectScreen™ Biochemical Kinase Profiling Service, using a Z′-LYTE™ kinase-specific assay, as described below.
The test compounds were screened in 1% dimethyl sulfoxide (DMSO) (final) in the well. For 10 point titrations, 3-fold serial dilutions were conducted from the starting concentration.
All peptide/kinase mixtures were diluted to a 2× working concentration in the appropriate kinase buffer (see section kinase specific assay conditions for a complete description).
All ATP solutions were diluted to a 4× working concentration in kinase buffer (50 mM 4-(2-hydroxyethyl)-1-piperazineethanesulfonic acid (HEPES) pH 7.5, 0.01% BRIJ-35, 10 mM MgCl2, 1 mM ethylene glycol-bis(β-aminoethyl ether)-N,N,N′,N′-tetraacetic acid (EGTA)). ATP Km apparent was previously determined using a Z′-LYTE assay.
The development reagent was diluted in development buffer (see section kinase-specific assay conditions—direct and cascade for a complete description).
Using a bar-coded Corning, low volume NBS, black 384-well plate (Corning Cat. #4514), 100 nL of 100× test compound in 100% DMSO was added. […] The plate was then shaken for 30 seconds and held at room temperature for a 60 minute kinase reaction incubation period. At which point 5 μL of development reagent solution was added and the plate was shaken for 30 seconds. The plate was held again at room temperature for a 60 minute development reaction incubation period and then read on a fluorescence plate reader and analyzed.
The 2×PTK2 (FAK)/Tyr 07 mixture was prepared in 50 mM HEPES pH 7.5, 0.01% BRIJ-35, 10 mM MgCl2, 1 mM EGTA. […] After the 1 hour kinase reaction incubation period, 5 μL of a 1:16 dilution of development reagent B was added.
SelectScreen Kinase Profiling Service uses XLfit from ID Business Solutions (IDBS). The dose response curve was curve fit to model number 205 (sigmoidal dose-response model).

In assay [1] the test system is MDA-MB-231 cells. Description: ultra-low adherent 3D-spheroid suspension cell viability (3D Cell Titer-Glo), 120 hours. The assay is classed as cell-based. The note with it: Homo sapiens. The protocol:
For ultra-low adherent 3D-spheroid suspensions, MDA-MB-231 cells were plated in 384-well format in media containing 10% Matrigel® and allowed to form spheroids overnight. Cells were treated with indicated molecules from compound stock plates using a JANUS® Workstation pin tool for 120 hours. To measure cell viability, 3D Cell Titer-Glo® was added to wells for 15 minutes at room temperature and luminescence was measured on an EnVision™ 2104 Multilabel Plate Reader.
For orientation: Cellular ATP, detected with luciferase, serves as a proxy for viable cell number.

Assay [2] deals with MDA-MB-231 cells. Description: 2D-adherent monolayer cell viability (Cell Titer-Glo), 120 hrs. The settings on record: Homo sapiens. The assay is classed as cell-based. The method, then:
For 2D-adherent monolayer experiments, MDA-MB-231 cells were plated in 384-well format and allowed to adhere overnight. Cells were treated with indicated molecules from compound stock plates using a JANUS® Workstation pin tool for 120 hrs. To measure cell viability, Cell Titer-Glo® was added to wells for 15 minutes at room temperature and luminescence was measured on an EnVision™ 2104 Multilabel Plate Reader.
Inventive compound treatment (0.00063-20 μM) led to antiproliferative effects in MDA-MB-231 cells cultured as 2D-adherent monolayers or as ultra-low adherent 3D-spheroid suspensions (Table 5).

Chain of PTK2 (FAK) (Q05397 whole entry): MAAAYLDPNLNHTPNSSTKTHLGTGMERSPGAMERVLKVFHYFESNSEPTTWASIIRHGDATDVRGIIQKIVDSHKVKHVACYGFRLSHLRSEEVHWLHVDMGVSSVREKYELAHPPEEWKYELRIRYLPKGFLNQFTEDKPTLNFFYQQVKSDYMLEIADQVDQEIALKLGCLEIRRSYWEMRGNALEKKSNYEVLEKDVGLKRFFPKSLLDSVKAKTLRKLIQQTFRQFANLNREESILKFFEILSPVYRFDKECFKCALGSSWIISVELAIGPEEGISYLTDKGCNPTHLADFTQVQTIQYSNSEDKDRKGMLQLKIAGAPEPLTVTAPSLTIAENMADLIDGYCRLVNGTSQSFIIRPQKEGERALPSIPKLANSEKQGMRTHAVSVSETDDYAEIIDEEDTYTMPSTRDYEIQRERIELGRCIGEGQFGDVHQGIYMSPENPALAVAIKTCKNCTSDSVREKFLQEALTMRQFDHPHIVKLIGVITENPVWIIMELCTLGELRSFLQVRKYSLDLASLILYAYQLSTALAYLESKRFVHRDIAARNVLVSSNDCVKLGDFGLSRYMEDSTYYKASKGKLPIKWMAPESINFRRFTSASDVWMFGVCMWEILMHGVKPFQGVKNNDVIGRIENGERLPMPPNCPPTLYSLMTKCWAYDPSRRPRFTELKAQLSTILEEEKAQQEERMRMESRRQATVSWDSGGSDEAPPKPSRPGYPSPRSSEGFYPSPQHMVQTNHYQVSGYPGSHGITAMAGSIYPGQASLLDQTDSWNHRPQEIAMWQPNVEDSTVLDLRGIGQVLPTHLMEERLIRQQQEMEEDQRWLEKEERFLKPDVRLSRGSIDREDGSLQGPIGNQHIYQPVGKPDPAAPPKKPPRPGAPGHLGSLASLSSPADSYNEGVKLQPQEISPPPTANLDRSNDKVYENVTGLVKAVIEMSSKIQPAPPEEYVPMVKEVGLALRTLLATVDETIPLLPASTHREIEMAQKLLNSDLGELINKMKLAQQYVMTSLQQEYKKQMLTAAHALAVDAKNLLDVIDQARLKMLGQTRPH

As to `COc1cc(C(=O)N2CCC(N3CCN(C)CC3)CC2)ccc1Nc1ncc2c(n1)N(C)c1sc(C)nc1C(=O)N2C` [Compound 28, 6-((2-methoxy-4-(4-(4-methylpiperazin-1-yl)piperidine-1-carbonyl)phenyl)amino)-2,4,9-trimethyl-4,9-dihydro-10H-pyrimido[5,4-b]thiazolo[5,4-e][1,4]diazepin-10-one], the IC50 – broadly, the concentration needed to halve the response being measured – at PTK2 (FAK) is 77.7 nM; in the assay with MDA-MB-231 cells [1], greater than 10 µM; in the assay on MDA-MB-231 cells [2], greater than 10 µM.
Turning to `CNC(=O)c1ccc(Nc2ncc3c(n2)N(C)c2sc(C)nc2C(=O)N3C)c(OC)c1` [Compound 21, 3-methoxy-N-methyl-4-((2,4,9-trimethyl-10-oxo-9,10-dihydro-4H-pyrimido[5,4-b]thiazolo[5,4-e][1,4]diazepin-6-yl)amino)benzamide], the values for the IC50 on PTK2 (FAK), in the assay with MDA-MB-231 cells [1] and in the assay on MDA-MB-231 cells [2] were 45.4 nM, greater than 10 µM and greater than 10 µM, respectively.
Turning to `COc1cc2c(cc1Nc1ncc3c(n1)N(C)c1sc(C)nc1C(=O)N3C)CN(C)CC2` [Compound 22, 6-((6-methoxy-2-methyl-1,2,3,4-tetrahydroisoquinolin-7-yl)amino)-2,4,9-trimethyl-4,9-dihydro-10H-pyrimido[5,4-b]thiazolo[5,4-e][1,4]diazepin-10-one], the IC50 on PTK2 (FAK) was 37.8 nM; in the assay with MDA-MB-231 cells [1], greater than 10 µM; with MDA-MB-231 cells [2] it was greater than 10 µM.

The values are drawn from patent US12365696B2, “Small-molecule focal adhesion kinase (FAK) inhibitors” (DANA-FARBER CANCER INSTITUTE, INC., priority 2019, dated 2025).
